Consider one substance from patent US20060241067A1, “Methods For inhibiting angiogenesis, cell migration, cell adhesion, and cell survival” (priority 2002, published 2006).

Assay [1] deals with chick chorioallantoic membrane (CAM). As to the kind of experiment: Chick chorioallantoic membrane (CAM) angiogenesis assay. The assay is classed as in vivo, chicken. The note with it: bFGF stimulated CAMs.
Assay [2] relates to Human umbilical vein endothelial cells (HUVEC). The assay is described as follows: Endothelial cell migration assay (transwell) on ECM substrates. The format is cell-based. As to the method: Human umbilical vein endothelial cells (HUVEC) were grown in Endothelial Growth Medium (containing 2% fetal bovine serum, bFGF and VEGF) (Clonetics, San Diego, Calif.). To render HUVECs quiescent for Rac and/or Rho assays, monolayers of endothelial cells were incubated for 18 hrs in Endothelial Basal Medium supplemented with 0.1% serum (Clonetics). Cell migration and adhesion assays on ECM substrates were performed as previously described in Kim et al. (S. Kim et al., Amer. J. Biol. Chem., 275:33920-33928 (2000); and S. Kim et al., Amer. J. Path., 156:1345-1362 (2000)).
Migration assays were performed essentially as described (Kim, et. al., 2000). […] HUVECS (25,000) were added to the upper chamber of inserts in migration buffer (Hepes buffered M199 medium containing 1% BSA, 2 mM MgCl2, 2 mM CaCl2 and 0.2 mM MnCl2) containing 25 μg/ml of various antibodies. In some experiments, 250 μM dibutyryl cAMP was placed in the upper and lower chambers of the transwell. Cells were allowed to migrate from the upper to the lower chamber for four hours at 37° C. The number of cells which had migrated were counted in three representative high power (200×) fields per insert. The data are presented as number of cells migrating+/−standard error of the mean. Migration assays were similarly performed on transfected cells. In this case, migrated transfected cells were identified by fluorescent microscopy and counted.

For assay [3], the system named is bFGF-stimulated angiogenesis in the mouse. As to the kind of experiment: Murine matrigel angiogenesis assay. The following applies: bFGF matrigel with peptide, subcutaneous. The format is in vivo, nude mice.

As for AVSEHQLLHS/D [PTHrP 1-10], the “effectiveness at inhibiting angiogenesis relative to PTHrP 1-34” value in assay [1] (1 μM) is on record as “slightly less effective”. Also, in assay [1] (1 μM peptide), the “angiogenesis (blood vessel branch points, vessel density)” value was “effective in inhibiting angiogenesis in the CAM assay”. The “endothelial cell migration on vitronectin” value in assay [2] (1 μM peptide) is “similarly effective in inhibiting cell migration on vitronectin”. Besides, the “maximum inhibition of cell migration” value in assay [2] (at a concentration of 10 μM) came out at 50%. The “angiogenesis in matrigel plugs (fluorescence intensity of lectin)” value in assay [3] is “effective in inhibiting angiogenesis in a mouse model of angiogenesis”.
